From patent publication US20110190399A1 (priority 2008, published 2011)

Tests used:
[1] = tested on: hemozoin synthesis; test: In vivo inhibition of hemozoin synthesis in P. yoelii infected mice; settings: oral, 3 days, curcumin fed bound to chitosan nanoparticles
Protocol: Infected mice were divided into 4 groups (each having 4 mice), namely: • 1. Control group which was further sub-divided into the infected control group, olive oil control group and chitosan control group • 2. Infected and fed with Chloroquinine (1.7 mg in 100 μl of normal saline/mouse/day orally) • 3. […] Infected and fed with Chitosan nanoparticles (200 micrograms of chitosan/day) orally
Red blood cells were purified on the third day of treatment. […] The cells were centrifuged at 10,000 g for 10 min, supernatant was discarded and the pellet washed in 1 ml of 0.1 M alkaline bicarbonate buffer (pH 9.2).

[2] = Effect on liver inflammation in human volunteers; format: in vivo; settings: 500 mg/day/person orally, 15 days
Description: Results of said tests are depicted in FIGS. 15.1-15.5.

[3] = Effect on hemoglobin and RBC level of human volunteers; format: in vivo; settings: 500 mg/day/person orally, 15 days
[4] = Effect on globulin level, eosinophils, neutrophils and platelet count of human volunteers; format: in vivo; settings: 500 mg/day/person orally, 15 days
[5] = Effect on kidney function in human volunteers; format: in vivo; settings: 500 mg/day/person orally
[6] = Effect on fasting blood sugar levels in human volunteers; format: in vivo; settings: 500 mg/day/person orally, 15 days
Description: The results of the analysis are depicted in FIG. 11.

SMILES	hemozoin formation in vivo [1]	ALP and Bilirubin levels [2]	adverse effect on liver function [2]	blood hemoglobin and RBCs (anemic condition, RBC counts) [3]	levels of eosinophiles, neutrophils and platelets [4]	change in potassium level ([5]; human volunteers (7), 15 days)	change in serum creatinine and urea levels ([5]; human volunteers, 15 days)	serum creatinine, urea and potassium levels ([5]; human volunteers, before and after 15 days)	fasting glucose level [6]
CCN(CC)CCCC(C)Nc1ccnc2cc(Cl)ccc12 (stereo not shown) [chloroquine]	inhibited hemozoin formation in vivo								
COc1cc(/C=C/C(=O)CC(=O)/C=C/c2ccc(O)c(OC)c2)ccc1O [curcumin, Curcumin]	inhibited hemozoin formation in vivo	in the normal range except in one or two cases	do not have any adverse effect on liver function	no adverse effect	no significant effect	increase	slight decrease	within the normal range	not altered
